From US10695314B2, “Antimicrobial composition containing 7,10-epoxyoctadeca-7,9-dienoic acid as active ingredient” (priority 2016, dated 2020)
≈ marks a conversion by molar mass, not a printed value.

What was measured:
[1] = system: MDRSA 01ST001; experiment: Minimal inhibitory concentration (MIC), broth microdilution per CLSI; details: Staphylococcus aureus
[2] = system: Staphylococcus aureus ATCC 29213; experiment: Antimicrobial activity on solid medium (clear zone around filter paper); assay type: cell-based; details: FIG. 3
Experimental: (§1) First, 1.5% of potato agar was added to the YDP medium, sterilized, and then an agar plate hardened by pouring about 20 ml in a plastic Petri dish was used. MRSA 01ST001 was diluted to about 107/ml, and then about 500 μl was dispersed evenly on the agar plate.
(§2) The size of the clear zone around the filter paper shown after the culture at 37° C. for 2 to 3 days after the inoculation was measured to confirm the degree of antimicrobial activity. At this time, vancomycin 100 μg, oxacillin 100 μg, ampicillin 100 μg, streptomycin 100 μg, and penicillin 100 μg were used as control groups.
(§3) The antimicrobial activity can be confirmed with the degree showing the clear zone on the agar plate. It is judged that the larger the clear zone, the higher the antimicrobial activity. The results are illustrated in FIG. 1 and FIG. 2.
(§4) The results are illustrated in FIG. 3. The experiment was carried out in the same manner as in Example 1-2.

[3] = system: Staphylococcus aureus ATCC 29213; experiment: Minimal inhibitory concentration (MIC), broth microdilution per CLSI; assay type: cell-based; details: Staphylococcus aureus, ATCC29213; strain 29213 (ATCC 29213); antibiotic alone; read-out: MIC
Experimental: The minimum inhibitory concentration (MIC) of antibiotics and the activity of 7,10-EODA of the present invention against Staphylococcus aureus strains were measured according to the CLSI guideline (CLSI document M100-517, 2007). Specifically, each antibiotic or 7,10-EODA was diluted 2-fold (200-0.97 μg/mL) by adding MHB (Mueller-Hinton Broth) to a 96-well microtiter plate. In the mid-exponential phase (0.5 OD600), the culture was diluted 10-fold with MHB and 0.1 mL aliquots of the diluent were added to wells containing the serially diluted test reagent and cultured at 37° C. for 12 hours. About the end of the culture period, the cell density was measured at an optical density of 600 nm (OD600) using a […].
(§5) Specifically, the minimal inhibitory concentration (MIC) was measured according to the method of Experimental Example 4 above, and the degree of inhibition (Agar diffusion analysis) (zone of inhibition; ZOI) was measured according to the method of Experimental Example 5 above.

[4] = system: Staphylococcus aureus ATCC 29213; experiment: Agar disk diffusion analysis, zone of inhibition (ZOI); assay type: cell-based; details: strain 29213
Experimental: (§6) For synergy effect screening, a 0.1 mL aliquot of MRSA or MSSA strain (5×10^5 CFU/mL) cultured in a log-phase on TSA plates was inoculated. […] A disk including DMSO alone or 7,10-EODA alone (¼×MIC) was used as a control group. The plates were cultured under conditions of […] and 24 hours, and a synergistic effect was observed when the disk periphery including both antibiotic and 7,10-EODA was at least 5 mm in zone of inhibition (ZOI).
as §5

[5] = system: MDRSA 01ST001; experiment: as above; assay type: cell-based, Staphylococcus aureus
Experimental: as §6
Specifically, in order to compare the antimicrobial activity of the 7,10-EODA or the antibiotic of the present invention against the MDRSA 01ST001 strain, the MDRSA 01ST001 strain was treated with the 7,10-EODA (E 100 μg) of the present invention, streptomycin (S, 100 μg), ampicillin (A, 100 μg), oxacillin (O, 100 μg), vancomycin (V, 100 μg), or penicillin (P, 100 μg), according to the method described in Experimental Example 5.
as §5

[6] = system: MRSA 01ST001 (MDRSA 01ST001); experiment: Antimicrobial activity on solid medium (clear zone around filter paper); assay type: cell-based, Staphylococcus aureus
Experimental: as §1, §2, §3, §4

[7] = system: MRSA strain 136; experiment: Checker board synergy evaluation (MIC, FICI); assay type: cell-based; details: Staphylococcus aureus, 24 h, strain 136, single agent, read-out: MIC
Experimental: (§7) Interactions of the selected antibiotic or 7,10-EODA of the present invention were evaluated using the checker board method (Nair et al. 2015). […] To obtain various concentrations of 7,10-EODA and antibiotic combination, a 2-fold dilution of the beta-lactam antibiotic was placed on the same plate. About 10^5 CFU/mL of microorganisms to be tested was added to the wells of each plate, and cultured for 24 hours at 37° C. without shaking. At the end of the culture period, cell growth was measured at OD600 using a spectrophotometer. Each 7,10-EODA and antibiotic combination was repeated at least three times. MIC was identified at the lowest concentration of antibiotics with growth inhibition of 90% or higher. FICAB means fractional inhibitory concentration (FIC) of drug A in the presence of drug B, and FICBA means fractional inhibitory concentration (FIC) of drug B in the presence of drug A. The fractional inhibitory concentration index (FICI) represents the sum of the FIC values of the interacting antibiotics. Interactions are based on FICI values, with FICIs less than 0.5 being categorized as synergy, FICIs 0.5 to 4 being indifferent, and FICIs greater than 4 being antagonistic. The degree of synergy was also measured based on the conventional Bliss independence model of synergy (Morones-Ramirez et al. 2013). Specifically, the degree of synergy was calculated by the following equation: S indicates degree of synergy, fAB indicates bacterial growth (optical density) when 7,10-EODA and antibiotics are used in combination, fA0 and f0B represent bacterial growth for antibiotic alone or 7,10-EODA single treatment, respectively. f00 represents bacterial growth in the absence of drug. The degree of synergy is divided into three categories based on the S value, where 0 means neutral, greater than 0 means synergism, and less than 0 means antagonism. S=(fA0/f00)(f0B/f00)−(fAB/f00)
(§8) The antimicrobial activity synergistic effects according to the combination treatment of 7,10-EODA and each antibiotic on methicillin-resistant Staphylococcus aureus (MRSA) strains 085, 093, 120, 136, and 165, MDRSA 01ST001, which is a multidrug-resistant Staphylococcus aureus (MDRSA) strain, E. coli ATCC 8739, and S. typhimurium KCTC 2515 were confirmed. […] Fractional inhibitory concentration indices (FICI) values accordingly were confirmed.

[8] = system: MRSA strain 093; experiment: Checker board synergy evaluation (MIC, FICI); assay type: cell-based; details: Staphylococcus aureus, 24 h, strain 093, single agent, read-out: MIC
Experimental: as §7, §8

[9] = system: MRSA strain 165; experiment: Checker board synergy evaluation (MIC, FICI); assay type: cell-based; details: Staphylococcus aureus, 24 h, strain 165, single agent, read-out: MIC
Experimental: as §7, §8

[10] = system: MDRSA 01ST001; experiment: Checker board synergy evaluation (MIC, FICI); assay type: cell-based; details: Staphylococcus aureus, 24 h; strain 001; single agent
Experimental: as §7, §8

[11] = system: MRSA strain 120; experiment: Checker board synergy evaluation (MIC, FICI); assay type: cell-based; details: Staphylococcus aureus, 24 h, strain 120, single agent, read-out: MIC
Experimental: as §7, §8

[12] = system: E. coli ATCC 8739; experiment: Checker board synergy evaluation (MIC, FICI); assay type: cell-based; details: Escherichia coli, ATCC8739, 24 h; strain 8739; single agent
Experimental: as §7, §8

[13] = system: MRSA strain 085; experiment: Checker board synergy evaluation (MIC, FICI); assay type: cell-based; details: Staphylococcus aureus, 24 h, strain 085, single agent, read-out: MIC
Experimental: as §7, §8

[14] = system: S. typhimurium KCTC 2515; experiment: Checker board synergy evaluation (MIC, FICI); assay type: cell-based, Salmonella typhimurium; details: Salmonella enterica, 24 h; strain 2515; single agent
Experimental: as §7, with “S=(fA0/f00)(f0B/f00)−(fAB/f00) […]” for “S=(fA0/f00)(f0B/f00)−(fAB/f00)”

[15] = system: MRSA 01ST018; experiment: Degree of synergy (Bliss independence model); assay type: cell-based, Staphylococcus aureus; details: antibiotic ¼×MIC in combination with 7,10-EODA 15.6 μg/mL (⅛×MIC); 24 hours; MRSA 018
Experimental: as §7
(§9) The results are illustrated in FIG. 10. […]

[16] = system: MDRSA 01ST001; experiment: Degree of synergy (Bliss independence model); assay type: cell-based, Staphylococcus aureus; details: antibiotic ¼×MIC in combination with 7,10-EODA 15.6 μg/mL (⅛×MIC), 24 hours
Experimental: as §7, §9

Cc1onc(-c2ccccc2)c1C(=O)N[C@@H]1C(=O)N2[C@@H]1SC(C)(C)[C@@H]2C(=O)O [OXA, oxacillin]
MIC [1]: 62.5 µg/mL (≈ 156 µM)
antimicrobial activity on solid medium [2]: high antimicrobial activity
MIC [3]: 0.04 µg/mL (≈ 0.0996 µM)
ZOI without 7.10-EODA ([4]; antibiotic ½×MIC alone): 8.3 ± 0.1 mm
ZOI with 7.10-EODA ([4]; antibiotic ½×MIC with 7,10-EODA ¼×MIC): 9.60 mm
antimicrobial activity, disk diffusion ([5]; 100 μg each, FIG. 4): resistant
antimicrobial activity effect in combination with 7,10-EODA ([5]; antibiotic treated in combination with 7,10-EODA, Table 1 summary): strong antimicrobial activity effect
ZOI without 7.10-EODA ([5]; strain 001, antibiotic ½×MIC alone): 6.0 ± 0.1 mm
ZOI with 7.10-EODA ([5]; strain 001, antibiotic ½×MIC with 7,10-EODA ¼×MIC): 14.1 mm
clear zone on agar plate ([6]; 100 μg per filter paper, 37° C., 2 to 3 days, FIG. 1): no clear zone appeared
antimicrobial activity on solid medium ([6]; MDRSA 01ST001, FIG. 3): did not show an antimicrobial activity
MIC [7]: 62.5 µg/mL
MIC [8]: 2000 µg/mL
MIC [9]: 31.2 µg/mL
MIC [10]: 62.5 µg/mL
MIC [11]: 250 µg/mL
MIC [12]: 200 µg/mL
MIC [13]: 250 µg/mL
MIC [14]: 250 µg/mL

gentamicin
synergy index [15]: 1.32
synergy index [16]: 1.37
